Measurements taken from ChEMBL document CHEMBL5154826, “Discovery of the Clinical Candidate MAK683: An EED-Directed, Allosteric, and Selective PRC2 Inhibitor for the Treatment of Advanced Malignancies” (J Med Chem, 2022).
pIC50: −log10 of the molar value. ≈ marks a conversion by molar mass, not a printed value.

Assays:
[1] = Toxicity in Wistar Han rat assessed as histological changes in liver at 30 to 400 mg/kg/day, po for 15 days by Hematoxylin and eosin staining based microscopic analysis; assay type: organism-based; settings: in vivo, 360 h, dose 30-400 mg/kg/day, time 15 day
[2] = molecular target: T1, Alpha-2C adrenergic receptor (Homo sapiens, UniProt P18825); assay: Inhibition of alpha2c adrenergic receptor (unknown origin)
T1 sequence (P18825 whole entry): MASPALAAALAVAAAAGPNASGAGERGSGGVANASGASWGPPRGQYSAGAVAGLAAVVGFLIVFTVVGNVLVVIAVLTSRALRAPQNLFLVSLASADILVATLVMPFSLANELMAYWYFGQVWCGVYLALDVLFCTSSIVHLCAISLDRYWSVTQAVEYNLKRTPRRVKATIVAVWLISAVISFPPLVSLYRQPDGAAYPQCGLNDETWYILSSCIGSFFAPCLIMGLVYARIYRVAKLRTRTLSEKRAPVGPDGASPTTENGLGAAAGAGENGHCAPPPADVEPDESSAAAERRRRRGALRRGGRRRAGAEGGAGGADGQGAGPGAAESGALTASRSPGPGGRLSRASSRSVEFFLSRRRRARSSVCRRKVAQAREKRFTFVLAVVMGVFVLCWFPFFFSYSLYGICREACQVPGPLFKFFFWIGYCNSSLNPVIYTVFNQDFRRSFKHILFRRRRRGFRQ

[3] = Drug metabolism in bile duct cannulated Wistar Han rat assessed as unmodified compound recovery in bile at 3 mg/kg, iv after 8 hrs by LC-MS/MS analysis; assay type: ADME, organism-based; settings: read-out: Drug metabolism
[4] = Drug metabolism in bile duct cannulated Wistar Han rat assessed as unmodified compound recovery in urine at 3 mg/kg, iv after 8 hrs by LC-MS/MS analysis; assay type: ADME, organism-based; settings: read-out: Drug metabolism
[5] = Drug metabolism in human liver microsomes assessed as CYP3A4 mediated M3 metabolite formation at 1 uM preincuabted for 5 mins followed by NADPH addition and measured after 20 mins by LC-MS/MS analysis; assay type: ADME, Microsome; settings: 25 min
[6] = Drug metabolism in rat liver microsomes assessed as CYP3A4 mediated M3 metabolite formation at 1 uM preincuabted for 5 mins followed by NADPH addition and measured after 20 mins by LC-MS/MS analysis; assay type: ADME, Microsome; settings: 25 min
[7] = Drug metabolism in human liver hepatocytes assessed as CYP3A4 M3 metabolite formation at 1 uM preincuabted for 5 mins followed by NADPH addition and measured after 20 mins by LC-MS/MS analysis; assay type: ADME, cell-based, Hepatocyte
[8] = Drug metabolism in rat liver hepatocytes assessed as CYP3A4 M3 metabolite formation at 1 uM preincuabted for 5 mins followed by NADPH addition and measured after 20 mins by LC-MS/MS analysis; assay type: ADME, cell-based, Hepatocyte
[9] = Toxicity in Wistar Hannover rat assessed as degeneration of cortical adrenal gland at 30 to 400 mg/kg/day, po for 15 days by Hematoxylin and eosin staining based microscopic analysis; assay type: organism-based; settings: in vivo, 360 h, DDE = dose-dependent effect, dose 30-400 mg/kg/day, time 15 day
[10] = Toxicity in Wistar Hannover rat assessed as infiltration of immune cells at 30 to 400 mg/kg/day, po for 15 days by Hematoxylin and eosin staining based microscopic analysis; assay type: organism-based; settings: in vivo, 360 h, DDE = dose-dependent effect, dose 30-400 mg/kg/day, time 15 day
[11] = Toxicity in Wistar Han rat assessed as histological changes in lung at 30 to 400 mg/kg/day,po for 15 days by Hematoxylin and eosin staining based microscopic analysis; assay type: organism-based; settings: in vivo, 360 h, dose 30-400 mg/kg/day, time 15 day
[12] = Toxicity in Wistar Han rat assessed as histological changes in kidney at 30 to 400 mg/kg/day, po for 15 days by Hematoxylin and eosin staining based microscopic analysis; assay type: organism-based; settings: in vivo, 360 h, dose 30-400 mg/kg/day, time 15 day
[13] = Inhibition of PRC2 (unknown origin) assessed as reduction in H3K27 trimethylation using H3K27Me0 peptide (21 to 44 residues) as substrate by measuring SAH formation by LC-MS analysis; parameters: species or system Homo sapiens
KARPAS-422 = assay: Antiproliferative activity against human KARPAS-422 cells expressing EZH2 mutant assessed as inhibition of cell growth after 14 days by beckman coulter counting method; assay type: functional; settings: Homo sapiens, KARPAS-422, 336 h; time 14 day
[14] = Lipophilicity, logD of the compound at pH 7.4 by LC with tandem MS analysis; assay type: physicochemical; settings: buffer, read-out: logD
[15] = High throughput solubility of the compound at pH 6.8 after 16 to 24 hrs by MS/MS analysis; assay type: physicochemical; settings: buffer, time 16-24 hrs
[16] = Permeability across apical to basolateral side in human Caco-2 cells at 10 uM incubated for 2 hrs by LC/MS/MS analysis; assay type: ADME, cell-based; settings: Caco-2, read-out: permeability
[17] = Efflux ratio of apparent permeability across basolateral to apical side over apical to basolateral side in human Caco-2 cells at 10 uM incubated for 2 hrs by LC/MS/MS analysis; assay type: ADME, cell-based
[18] = Dose normalized AUC in Sprague-Dawley rat at 2 mg/kg, po; assay type: ADME, organism-based; settings: in vivo
[19] = Terminal half life in Sprague-Dawley rat at 2 mg/kg, po; assay type: ADME, organism-based; settings: in vivo, read-out: beta t1/2 (converted)
[20] = Oral bioavailability in Sprague-Dawley rat at 2 mg/kg; assay type: ADME, organism-based; settings: in vivo
Cytochrome P450 3A4 = Cytochrome P450 3A4 (Homo sapiens, UniProt P08684); assay: Inhibition of CYP3A4 in human liver microsomes using midazolam as substrate incubated for 10 mins in presence of NADPH by LC-MS/MS analysis; assay type: ADME, Microsome
Chain of Cytochrome P450 3A4 (P08684 whole entry): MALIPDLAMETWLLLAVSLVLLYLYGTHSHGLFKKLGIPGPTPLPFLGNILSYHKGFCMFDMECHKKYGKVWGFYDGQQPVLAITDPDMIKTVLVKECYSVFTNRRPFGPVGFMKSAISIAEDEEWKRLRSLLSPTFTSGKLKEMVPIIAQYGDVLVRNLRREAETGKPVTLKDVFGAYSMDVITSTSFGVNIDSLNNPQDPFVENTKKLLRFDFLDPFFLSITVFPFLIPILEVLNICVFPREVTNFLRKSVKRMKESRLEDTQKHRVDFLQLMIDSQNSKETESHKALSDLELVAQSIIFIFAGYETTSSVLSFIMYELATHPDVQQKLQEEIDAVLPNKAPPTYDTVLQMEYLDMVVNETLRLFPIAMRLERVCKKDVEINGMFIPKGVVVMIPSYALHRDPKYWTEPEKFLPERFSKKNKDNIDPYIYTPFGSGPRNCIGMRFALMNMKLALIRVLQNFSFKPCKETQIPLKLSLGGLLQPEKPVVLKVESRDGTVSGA

Cytochrome P450 2C9 = Cytochrome P450 2C9 (Homo sapiens, UniProt P11712); assay: Inhibition of CYP2C9 in human liver microsomes using diclofenac as substrate incubated for 10 mins in presence of NADPH by LC-MS/MS analysis; assay type: ADME, Microsome
Chain of Cytochrome P450 2C9 (P11712 whole entry): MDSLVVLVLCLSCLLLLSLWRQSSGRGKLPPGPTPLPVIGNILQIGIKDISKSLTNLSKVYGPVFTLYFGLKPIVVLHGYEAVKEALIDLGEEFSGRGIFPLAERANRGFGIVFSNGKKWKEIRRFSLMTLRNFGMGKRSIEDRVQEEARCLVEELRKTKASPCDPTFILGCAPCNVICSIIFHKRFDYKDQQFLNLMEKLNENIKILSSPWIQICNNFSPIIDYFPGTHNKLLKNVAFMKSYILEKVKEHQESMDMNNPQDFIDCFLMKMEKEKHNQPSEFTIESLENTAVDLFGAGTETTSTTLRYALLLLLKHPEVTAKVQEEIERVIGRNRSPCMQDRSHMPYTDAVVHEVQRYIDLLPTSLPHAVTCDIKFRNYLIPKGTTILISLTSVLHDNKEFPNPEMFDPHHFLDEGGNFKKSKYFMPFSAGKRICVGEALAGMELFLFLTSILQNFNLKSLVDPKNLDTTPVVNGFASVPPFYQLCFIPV

Cytochrome P450 2D6 = Cytochrome P450 2D6 (Homo sapiens, UniProt P10635); assay: Inhibition of CYP2D6 in human liver microsomes using bufuralol as substrate incubated for 10 mins in presence of NADPH by LC-MS/MS analysis; assay type: ADME, Microsome
Chain of Cytochrome P450 2D6 (P10635 whole entry): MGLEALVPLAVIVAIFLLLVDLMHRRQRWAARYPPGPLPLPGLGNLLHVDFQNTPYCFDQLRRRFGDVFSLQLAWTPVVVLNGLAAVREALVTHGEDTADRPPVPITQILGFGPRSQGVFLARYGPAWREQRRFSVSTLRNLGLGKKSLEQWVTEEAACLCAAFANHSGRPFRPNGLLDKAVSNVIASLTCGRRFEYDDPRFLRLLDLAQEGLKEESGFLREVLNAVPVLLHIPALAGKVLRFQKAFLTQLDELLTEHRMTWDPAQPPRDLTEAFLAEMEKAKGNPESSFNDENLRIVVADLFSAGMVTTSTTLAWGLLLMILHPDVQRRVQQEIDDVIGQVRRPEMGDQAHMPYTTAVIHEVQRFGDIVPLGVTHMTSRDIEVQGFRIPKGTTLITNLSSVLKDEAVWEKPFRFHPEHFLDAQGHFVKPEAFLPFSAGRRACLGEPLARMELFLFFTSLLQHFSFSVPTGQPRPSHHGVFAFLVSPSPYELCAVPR

[21] = molecular target: 3',5'-cyclic-AMP phosphodiesterase 4D (Homo sapiens, UniProt Q08499); assay: Inhibition of human Phosphodiesterase 4D
Chain of 3',5'-cyclic-AMP phosphodiesterase 4D (Q08499 whole entry): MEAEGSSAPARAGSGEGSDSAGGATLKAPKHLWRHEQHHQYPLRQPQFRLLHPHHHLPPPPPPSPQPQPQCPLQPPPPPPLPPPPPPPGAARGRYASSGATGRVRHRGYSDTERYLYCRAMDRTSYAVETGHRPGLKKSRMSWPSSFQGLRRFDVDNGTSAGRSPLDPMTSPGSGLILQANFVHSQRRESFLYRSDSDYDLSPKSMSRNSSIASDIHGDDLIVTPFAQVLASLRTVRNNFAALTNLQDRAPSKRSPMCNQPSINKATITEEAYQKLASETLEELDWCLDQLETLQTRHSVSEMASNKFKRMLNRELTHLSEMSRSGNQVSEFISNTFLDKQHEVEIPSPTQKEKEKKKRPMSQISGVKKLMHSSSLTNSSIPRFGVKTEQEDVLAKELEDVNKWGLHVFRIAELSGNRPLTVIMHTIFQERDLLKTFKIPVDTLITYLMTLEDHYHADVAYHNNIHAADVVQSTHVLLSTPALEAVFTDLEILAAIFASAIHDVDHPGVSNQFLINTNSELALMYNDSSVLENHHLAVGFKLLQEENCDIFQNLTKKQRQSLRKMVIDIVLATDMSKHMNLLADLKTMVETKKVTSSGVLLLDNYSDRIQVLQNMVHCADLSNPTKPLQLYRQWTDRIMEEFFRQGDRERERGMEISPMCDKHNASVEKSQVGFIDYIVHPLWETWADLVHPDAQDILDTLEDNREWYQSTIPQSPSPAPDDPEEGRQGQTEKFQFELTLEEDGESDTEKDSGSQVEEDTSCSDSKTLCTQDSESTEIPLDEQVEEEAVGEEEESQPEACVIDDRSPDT

[22] = molecular target: T2, Alpha-2A adrenergic receptor (Homo sapiens, UniProt P08913); assay: Antagonist activity against alpha2a adrenergic receptor (unknown origin); assay type: functional
T2 sequence (P08913 whole entry): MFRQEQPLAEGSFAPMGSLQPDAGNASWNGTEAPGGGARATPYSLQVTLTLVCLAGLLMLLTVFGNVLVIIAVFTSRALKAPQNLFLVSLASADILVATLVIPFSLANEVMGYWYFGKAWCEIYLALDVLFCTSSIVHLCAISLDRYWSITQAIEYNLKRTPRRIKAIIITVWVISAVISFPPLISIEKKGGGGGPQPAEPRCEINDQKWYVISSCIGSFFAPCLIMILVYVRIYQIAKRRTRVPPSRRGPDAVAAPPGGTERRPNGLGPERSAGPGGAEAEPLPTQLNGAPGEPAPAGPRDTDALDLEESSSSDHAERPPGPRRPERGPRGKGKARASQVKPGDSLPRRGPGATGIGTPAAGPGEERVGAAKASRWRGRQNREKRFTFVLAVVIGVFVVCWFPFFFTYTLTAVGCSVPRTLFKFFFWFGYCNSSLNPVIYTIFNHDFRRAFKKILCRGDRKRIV

cells = settings: Homo sapiens, G-401, 48 h
Description: Inhibition of PRC2 in human G-401 cells assessed as H3K27 methylation status incubated for 48 hrs by ELISA method

CS(=O)(=O)c1ccc(-c2cnc(NCc3ccco3)n3cnnc23)cc1
Activity [1]: Non-Toxic | pIC50 [2]: 4.85 | dose excreted at 8 h [3]: 0.5% | dose excreted at 8 h [4]: 0.9% | Drug metabolism [5]: Metabolite_Detected | Drug metabolism [6]: Metabolite_Detected | Drug metabolism [7]: Metabolite_Detected | Drug metabolism [8]: Metabolite_Detected | Activity [9]: Dde | Activity [10]: Dde | Activity [11]: Non-Toxic | Activity [12]: Non-Toxic | pIC50 [13]: 7.66 | GI50 (KARPAS-422): 0.08 µM | logD [14]: 1.8 | solubility [15]: 12 µM (≈ 4.43 µg/mL) | Papp A→B at 2 h, 10 µM [16]: 3 ×10⁻⁶ cm/s | efflux ratio at 2 h, 10 µM [17]: 7.6 | AUC/dose [18]: 1948 nM·h | half-life [19]: 1.6 h | bioavailability [20]: 62% | pIC50 (Cytochrome P450 3A4): < 4.30 | pIC50 (Cytochrome P450 2C9): < 4.30 | pIC50 (Cytochrome P450 2D6): < 4.30 | pIC50 [21]: 4.70 | pIC50 [22]: 4.82 | pIC50 (cells): 6.66
